According to patent publication US9828385B2, “Spiro-oxazolones” (Hoffmann-La Roche Inc., priority 2014, dated 2017):

Target: T1, human V1a receptor (Homo sapiens, UniProt P37288)
T1 construct: expressed in transfected cells; host or cells: HEK293 cells, transiently transfected; cell membranes
Assay: human V1a receptor binding studies (3H-Vasopressin, SPA beads)
Settings: membranes of HEK293 cells transiently transfected with human V1a receptor, Ki by Cheng-Prussoff from IC50, read-out: pKi hV1a (converted)
Procedure: The human V1a receptor was cloned by RT-PCR from total human liver RNA. The coding sequence was subcloned in an expression vector after sequencing to confirm the identity of the amplified sequence. […] Cell membranes were prepared from HEK293 cells transiently transfected with the expression vector and grown in 20 liter fermenters with the following protocol.
50 g of cells are re-suspended in 30 ml freshly prepared ice cold Lysis buffer (50 mM HEPES, 1 mM EDTA, 10 mM MgCl2 adjusted to pH=7.4+complete cocktail of protease inhibitor (Roche Diagnostics)). Homogenized with Polytron for 1 min and sonicated on ice for 2×2 minutes at 80% intensity (Vibracell sonicator). The preparation is centrifuged 20 min at 500 g at 4° C., the pellet is discarded and the supernatant centrifuged 1 hour at 43′000 g at 4° C. (19′000 rpm). The pellet is re-suspended in 12.5 ml Lysis buffer+12.5 ml Sucrose 20% and homogenized using a Polytron for 1-2 min. The protein concentration is determined by the Bradford method and aliquots are stored at −80° C. until use. For binding studies 60 mg Yttrium silicate SPA beads (Amersham) are mixed with an aliquot of membrane in binding buffer (50 mM Tris, 120 mM NaCl, 5 mM KCl, 2 mM CaCl2, 10 mM MgCl2) for 15 minutes with mixing. 50 μl of bead/membrane mixture is then added to each well of a 96 well plate, followed by 50 μl of 4 nM 3H-Vasopressin (American Radiolabeled Chemicals). For total binding measurement 100 μl of binding buffer are added to the respective wells, for non-specific binding 100 μl of […] cold vasopressin and for compound testing 100 μl of a serial dilution of each compound in 2% DMSO. The plate is incubated 1 h at room temperature, centrifuged 1 min at 1000 g and counted on a Packard Top-Count. Non-specific binding counts are subtracted from each well and data is normalized to the maximum specific binding set at 100%. To calculate an IC 50 the curve is fitted using a non-linear regression model (XLfit) and the Ki is calculated using the Cheng-Prussoff equation.

T1 sequence (P37288 whole entry): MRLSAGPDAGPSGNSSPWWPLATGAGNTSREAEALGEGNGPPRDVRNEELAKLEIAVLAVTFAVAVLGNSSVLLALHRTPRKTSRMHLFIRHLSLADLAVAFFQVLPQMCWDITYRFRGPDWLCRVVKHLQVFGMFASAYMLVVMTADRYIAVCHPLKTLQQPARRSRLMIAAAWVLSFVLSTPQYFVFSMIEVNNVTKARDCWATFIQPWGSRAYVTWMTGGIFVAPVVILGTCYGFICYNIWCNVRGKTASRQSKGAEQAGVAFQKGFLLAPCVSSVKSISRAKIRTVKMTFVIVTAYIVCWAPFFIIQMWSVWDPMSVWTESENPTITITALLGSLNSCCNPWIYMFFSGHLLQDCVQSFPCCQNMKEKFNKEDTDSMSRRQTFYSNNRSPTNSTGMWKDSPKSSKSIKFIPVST

SMILES	Ki
O=C1OC2(CCN(C3=NC(=O)C(C(O)c4ccc(Cl)cc4)O3)CC2)c2ccccc21 (single isomer, unassigned) [Example 53, 1′-{-5-[(4-Chlorophenyl)(hydroxy)methyl]-4-oxo-4,5-dihydro-1,3-oxazol-2-yl}-3H-spiro[2-benzofuran-1,4′-piperidin]-3-one diastereomer b, enantiomer B]	158 nM
CCCCC1OC(N2CCC3(CC2)OCc2ccccc23)=NC1=O (single isomer, unassigned; (+)) [Example 4, (+)-5-Butyl-2-(1′H,3H-spiro[2-benzofuran-1,4′-piperidin]-1′-yl)-1,3-oxazol-4(5H)-one]	5.01 nM
CC1(CC2CCCC2)OC(N2CCC3(CC2)OCc2ccccc23)=NC1=O (single isomer, unassigned; (+)) [Example 77, (+)-5-(Cyclopentylmethyl)-5-methyl-2-(1′H,3H-spiro[2-benzofuran-1,4′-piperidin]-1′-yl)-1,3-oxazol-4(5H)-one]	2.51 nM
CCCCC1OC(N2CCC3(CC2)OCc2ccccc23)=NC1=O (single isomer, unassigned; (-)) [Example 3, (−)-5-Butyl-2-(1′H,3H-spiro[2-benzofuran-1,4′-piperidin]-1′-yl)-1,3-oxazol-4(5H)-one]	50.1 nM
O=C1N=C(N2CCC3(CC2)OCc2ccccc23)OC1C(O)c1ccc(Cl)cc1 (single isomer, unassigned; diastereomer a) [Example 42, (−)-5-[(4-Chlorophenyl)(hydroxy)methyl]-2-(1′H,3H-spiro[2-benzofuran-1,4′-piperidin]-1′-yl)-1,3-oxazol-4(5H)-one diastereomer a]	3.16 nM
O=C1N=C(N2CCC3(CC2)OCc2ccccc23)OC1C(O)c1ccc(Cl)cc1 (single isomer, unassigned; diastereomer a) [Example 43, (+)-5-[(4-Chlorophenyl)(hydroxy)methyl]-2-(1′H,3H-spiro[2-benzofuran-1,4′-piperidin]-1′-yl)-1,3-oxazol-4(5H)-one diastereomer a]	15.8 nM
CC1(CC2CCCOC2)OC(N2CCC3(CC2)OCc2ccccc23)=NC1=O (single isomer, unassigned; diastereomer a) [Example 102, (+)-5-Methyl-2-(1′H,3H-spiro[2-benzofuran-1,4′-piperidin]-1′-yl)-5-(tetrahydro-2H-pyran-3-ylmethyl)-1,3-oxazol-4(5H)-one diastereomer a]	20 nM
CC1(CC2CCCOC2)OC(N2CCC3(CC2)OCc2ccccc23)=NC1=O (single isomer, unassigned; diastereomer a) [Example 103, (−)-5-Methyl-2-(1′H,3H-spiro[2-benzofuran-1,4′-piperidin]-1′-yl)-5-(tetrahydro-2H-pyran-3-ylmethyl)-1,3-oxazol-4(5H)-one diastereomer a]	10 nM
CC(c1ccccc1)C1(C)OC(N2CCC3(CC2)OCc2ccccc23)=NC1=O (single isomer, unassigned; diastereomer a) [Example 106, 5-Methyl-5-(1-phenylethyl)-2-(1′H,3H-spiro[2-benzofuran-1,4′-piperidin]-1′-yl)-1,3-oxazol-4(5H)-one diastereomer a]	15.8 nM

Other lines, results leading:

Ki	SMILES
25.1 nM	CCCCC1(C)OC(N2CCC3(CC2)OCc2ccccc23)=NC1=O (single isomer, unassigned; (+)) [Example 67, (+)-5-Butyl-5-methyl-2-(1′H,3H-spiro[2-benzofuran-1,4′-piperidin]-1′-yl)-1,3-oxazol-4(5H)-one]
7.94 nM	CC1(Cc2ccccc2)OC(N2CCC3(CC2)OCc2ccccc23)=NC1=O (single isomer, unassigned; (+)) [Example 70, (+)-5-Benzyl-5-methyl-2-(1′H,3H-spiro[2-benzofuran-1,4′-piperidin]-1′-yl)-1,3-oxazol-4(5H)-one]
501 nM	CC1(Cc2ccc(Cl)nc2)OC(N2CCC3(CC2)OCc2ccccc23)=NC1=O (single isomer, unassigned; (+)) [Example 84, (+)-5-[(6-Chloropyridin-3-yl)methyl]-5-methyl-2-(1′H,3H-spiro[2-benzofuran-1,4′-piperidin]-1′-yl)-1,3-oxazol-4(5H)-one]
1.26 nM	CC1(Cc2ccc(Cl)s2)OC(N2CCC3(CC2)OCc2ccccc23)=NC1=O (single isomer, unassigned; (+)) [Example 86, (+)-5-[(5-Chlorothiophen-2-yl)methyl]-5-methyl-2-(1′H,3H-spiro[2-benzofuran-1,4′-piperidin]-1′-yl)-1,3-oxazol-4(5H)-one]
251 nM	CCOCC1(C)OC(N2CCC3(CC2)OCc2ccccc23)=NC1=O (single isomer, unassigned; (+)) [Example 96, (+)-5-(Ethoxymethyl)-5-methyl-2-(1′H,3H-spiro[2-benzofuran-1,4′-piperidin]-1′-yl)-1,3-oxazol-4(5H)-one]
200 nM	CCCCC1(C)OC(N2CCC3(CC2)OCc2ccccc23)=NC1=O (single isomer, unassigned; (-)) [Example 68, (−)-5-Butyl-5-methyl-2-(1′H,3H-spiro[2-benzofuran-1,4′-piperidin]-1′-yl)-1,3-oxazol-4(5H)-one]
79.4 nM	CC1(Cc2ccccc2)OC(N2CCC3(CC2)OCc2ccccc23)=NC1=O (single isomer, unassigned; (-)) [Example 71, (−)-5-Benzyl-5-methyl-2-(1′H,3H-spiro[2-benzofuran-1,4′-piperidin]-1′-yl)-1,3-oxazol-4(5H)-one]
100 nM	CC1(CC2CCCC2)OC(N2CCC3(CC2)OCc2ccccc23)=NC1=O (single isomer, unassigned; (-)) [Example 78, (−)-5-(Cyclopentylmethyl)-5-methyl-2-(1′H,3H-spiro[2-benzofuran-1,4′-piperidin]-1′-yl)-1,3-oxazol-4(5H)-one]
39.8 nM	CC1(Cc2ccc(Cl)nc2)OC(N2CCC3(CC2)OCc2ccccc23)=NC1=O (single isomer, unassigned; (-)) [Example 83, (−)-5-[(6-Chloropyridin-3-yl)methyl]-5-methyl-2-(1′H,3H-spiro[2-benzofuran-1,4′-piperidin]-1′-yl)-1,3-oxazol-4(5H)-one]
200 nM	CC1(Cc2ccc(Cl)s2)OC(N2CCC3(CC2)OCc2ccccc23)=NC1=O (single isomer, unassigned; (-)) [Example 87, (−)-5-[(5-Chlorothiophen-2-yl)methyl]-5-methyl-2-(1′H,3H-spiro[2-benzofuran-1,4′-piperidin]-1′-yl)-1,3-oxazol-4(5H)-one]
1580 nM	CCOCC1(C)OC(N2CCC3(CC2)OCc2ccccc23)=NC1=O (single isomer, unassigned; (-)) [Example 97, (−)-5-(Ethoxymethyl)-5-methyl-2-(1′H,3H-spiro[2-benzofuran-1,4′-piperidin]-1′-yl)-1,3-oxazol-4(5H)-one]
251 nM	CC1(CC2CCOC2)OC(N2CCC3(CC2)OCc2ccccc23)=NC1=O (single isomer, unassigned; diastereomer a) [Example 99, 5-Methyl-2-(1′H,3H-spiro[2-benzofuran-1,4′-piperidin]-1′-yl)-5-(tetrahydrofuran-3-ylmethyl)-1,3-oxazol-4(5H)-one diastereomer a]
